Measurements as given in patent US20160067247A1, “NOVEL USE” (GlaxoSmithKline Intellectual Property (No.2) Limited, priority 2012, published 2016).
Where two headings read alike, the source gives them in different places.

Tested on: primary human lung fibroblasts
Assay: 72 hour cell population growth, MTS assay (CellTiter 96 AQueous)
Type: cell-based
Conditions: for IC50: Homo sapiens, Fibroblast, 72 h, 10% FBS, read-out: mean pIC50, inhibition of cell growth (MTS) (converted)
Protocol: Primary human fibroblasts were isolated by explant culture from non-IPF lung tissue, obtained post mortem following sudden trauma, and IPF lung tissue obtained from the lungs of IPF patients which were removed for transplantation or biopsy. Explants were cultured in DMEM containing high glucose and sodium pyruvate (PAA laboratories, catalogue #E15-011) with penicillin/streptomycin (Sigma #P4333), amphotericin B (Sigma #A2942), L-glutamine (Gibco #25030) and 20% FBS (foetal bovine serum, Lonza, catalogue #14-801F, Lot #1SB003) at 37° C., 100% humidity, 10% CO2. Cells were designated non-IPF (UCL marked 0110 and 0610) and IPF (UCL marked 0207, 0208, 0308, 0507 and 0508) based on medical diagnosis.
Human lung primary fibroblast cell lines were cultured in DMEM containing high glucose and sodium pyruvate supplemented with L-glutamine, penicillin/streptomycin and 10% FBS (complete DMEM) at 37° C., 100% humidity, 10% CO2. Cells were split into T175 flasks (NUNC #159910) 2 to 3 days prior to assay set-up at a density which yields approximately 70-80% confluence at time of harvest for assay. […]
For reading 20 μL of CellTiter 96™ AQueous non-radioactive cell growth assay (MTS) reagent (Promega #G5430) was added to all wells. Plates were incubated for a further 2 hours at 37° C., 100% humidity, 10% CO2 then read at 490 nm on a Versamax microplate reader using Softmax Pro v5 software. Readings were corrected for FBS discoloration as per manufacturer's instructions, by the subtraction of values from media control (no cell) wells.
The maximum fitted (upper asymptote) value for each experiment and used as the 100% reference response. The MTS signal (with media background values subtracted) in the presence of increasing log Molar concentrations of 2,4-difluoro-N-{2-(methyloxy)-5-[4-(4-pyridazinyl)-6-quinolinyl]-3-pyridinyl}benzenesulfonamide were expressed as a % of the maximum asymptote. […]
In a subset of experiments, where cell growth was measured in parallel with activation of caspase 3/7, T0 readings were taken when serum free medium was changed to 10% FBS and compound added. […]

COc1ncc(-c2ccc3nccc(-c4ccnnc4)c3c2)cc1NS(=O)(=O)c1ccc(F)cc1F [2,4-difluoro-N-{2-(methyloxy)-5-[4-(4-pyridazinyl)-6-quinolinyl]-3-pyridinyl}benzenesulfonamide]
IC50 (IPF fibroblasts, n=5 cell lines (+/-0.1 SEM)): 31.6 nM
IC50 (primary human non-IPF fibroblasts, n=2 lines (±0.2 SEM)): 20 nM
concentration at which MTS signal with 10% FBS appeared lower than no FBS controls (reduction in cell number, potentially indicative of cell death) (fibroblasts): > 30 nM
